In one series the target is T1, CK2A1 (Homo sapiens, UniProt P68400).
T1 construct: purchased Eurofins
Description: Radiometric kinase assay (Eurofins), CK2A1. The class given is biochemical. As to conditions: for Inhibitory activity, radiometric kinase assays using recombinant CK2α1: FIG. 4E. From the text: FIGS. 4A-4F characterize flavones for in vitro and in-cell CK2 inhibition. […] Representative of two independent experiments. […] Nonlinear fit was used to calculate IC50. […] Nonlinear fit was used to calculate IC50. […] Nonlinear fit was used to calculate IC50. […] Normalized to DMSO, data are representative of three independent experiments.
(§1) • ^1Radiometric kinase assay from Eurofins. Performed in astrocytes with a Promega Lumit IL-6 kit.

Another series has as its target T2, CK2A2 (Homo sapiens, UniProt P19784).
T2 construct: purchased Eurofins
Description: Radiometric kinase assay (Eurofins), CK2A2. The class given is biochemical. To be noted: read-out: CK2A2 RAD IC50.
Excerpt: as §1

Another series deals with IL-6 secretion. Description: IL-6 secretion assay in astrocytes (Promega Lumit IL-6 kit). To be noted: Homo sapiens, Astrocyte, read-out: IL6-Inhib. The class given is cell-based, human. Here is the method:
IL-6 secretion assay. HCAs were plated at 20,000 cells per well in white clear bottom 96-well plates. Two to three days later, media was removed and replaced with media containing 10 ng/mL IL1B and compound dilution series. Five hours later, plates were processed using the Lumit IL-6 Assay Kit (Promega W6030) according to the manufacturer's instructions.
• ^1Radiometric kinase assay from Eurofins. Performed in astrocytes with a Promega Lumit IL-6 kit. A series of halogenated flavones was generated and assayed (Table 3).

Another series can be described thus: Aqueous solubility. As to conditions: read-out: Aqueous Solubility. The class given is physicochemical.
A further series has as its system NF-κB. Description: NF-κB-Luciferase reporter assay in THP-1 NF-κB-Lucia cells. The class given is cell-based, human. To be noted: for Activity in THP-1-NF-κB-Lucia monocytes: FIG. 4D; for SAR summary: activity in NF-κB reporter assay and for CK2 kinase inhibition: at 20 μM, FIG. 5A, some values sourced from Baier et al. (2017) and Lolli et al. (2012); for IC50: Homo sapiens, THP-1, FIG. 5B, read-out: IC50 in THP-1 monocyte NF-κB-Luciferase reporter cells. Here is the method: NF-κB-Luciferase reporter assay. THP-1 NF-κB-Lucia cells were plated at 10,000 cells per well with 10 ng/mL PMA. Three days later, media was removed and replaced with media containing LPS (1 μg/mL) and dilution series of compounds in flat bottom clear 96-well plates for 24 hours. A day later, 20 μL of media was transferred to a 96-well white plate and 50 μL of QuantiLuc Gold reagent (InvivoGen rep-qlcg5) was added per well; plate was mixed in the plate reader and luminescence was read using a Promega GloMax Reader.

In series [1] the test system is IL-6, IL-8, TNF-α, and MCP-1. Description: Flow cytometry assay of cytokine production in HCA. The class given is cell-based, human. As to conditions: 20 μM compound, 10 ng/mL IL1-β. The method, then:
Flow cytometry. For each well of HCA in a 6-well plate, 2 mL of fresh media with GolgiPLUG (BD #555029, 1:1000) and GolgiSTOP (BD #554724, 1:1000) with 20 μM compound or vehicle (DMSO) and IL1b 10 ng/mL or DPBS was added. The cells were incubated for 5 h at 37° C. Cells were collected with TrypLE and plated into a 96-well V-bottom plate for staining. The plate was centrifuged for 5 min, 1300 rpm, 4° C. to pellet cells, which were subsequently resuspended in 100 μL DPBS with 1 μL Zombie Violet (Biolegend #4231 13) and 5 μL Human Trustain FC block (Biolegend #422302) per well for 15 min at room temperature in the dark. The plate was centrifuged, supernatant was aspirated, and the cells were washed with 100 μL/well DPBS. Cells were fixed with 100 μL/well of Cytofix/Cytoperm (BD) for 20 min at 4° C. The plate was centrifuged, supernatant was aspirated, and cells were resuspended in 100 μL Permwash (BD) and incubated for 15 min at 4° C. The plate was centrifuged, supernatant was aspirated, and cells were incubated with 100 μL/well of Ab mix or isotype mix in Permwash (see below) for 20 min at 4° C., followed by centrifugation and 2× PermWash washes. The cells were resuspended in 100 μL DPBS and transferred to FACS tubes containing 200 ul of PBS (total volume per tube 300 μL) for analysis on FACS Analyzers (LSRII or Fortessa).
A flow cytometry-based assay was used to assess the anti-inflammatory activity of several natural flavonoid compounds (FIG. 1A) and build corresponding structure-activity relationships. Primary human cerebellar astrocytes (HCA) were co-treated with 20 μM of each compound or vehicle (DMSO), 10 ng/mL IL1-β, and a protein transport inhibitor for 6 hours, and then processed for intracellular staining of pro-inflammatory cytokines IL-6, IL-8, TNF-α, and MCP-1. The presence of a C2-C3 double bond was the predominant determining factor for anti-inflammatory activity. […] There was no cytotoxicity associated with flavone treatment (FIG. 1E).
In general terms: Flow cytometry measures light scatter and fluorescence of single cells or particles in a stream.

Setting [2] is: Table 11, aurones, read-out: CK2A1 RAD IC50.
The mark [3] stands for this setting: Table 8, quinazolinones, read-out: CK2A1 RAD IC50.
Where [4] appears, read: aqueous medium (not further specified), Table 8.
Where [5] appears, read: flavanones, FIGS. 4C-4E (NanoBRET, THP-1 reporter, radiometric CK2α1), read-out: IC50 as CK2 inhibitors and anti-inflammatory agents.

Converted amounts (≈) assume the structure as drawn. Like-named read-outs stand apart in the source and are kept apart here.

T2 sequence (P19784 whole entry): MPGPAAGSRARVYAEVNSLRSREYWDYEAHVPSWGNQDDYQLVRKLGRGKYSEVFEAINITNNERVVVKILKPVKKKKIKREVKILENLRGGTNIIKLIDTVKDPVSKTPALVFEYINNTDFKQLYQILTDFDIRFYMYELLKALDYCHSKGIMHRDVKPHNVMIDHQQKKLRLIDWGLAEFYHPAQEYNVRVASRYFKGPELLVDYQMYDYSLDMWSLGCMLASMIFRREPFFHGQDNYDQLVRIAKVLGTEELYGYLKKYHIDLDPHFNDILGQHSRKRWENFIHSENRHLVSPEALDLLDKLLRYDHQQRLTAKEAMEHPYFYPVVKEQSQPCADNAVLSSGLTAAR
T1 sequence (P68400 whole entry): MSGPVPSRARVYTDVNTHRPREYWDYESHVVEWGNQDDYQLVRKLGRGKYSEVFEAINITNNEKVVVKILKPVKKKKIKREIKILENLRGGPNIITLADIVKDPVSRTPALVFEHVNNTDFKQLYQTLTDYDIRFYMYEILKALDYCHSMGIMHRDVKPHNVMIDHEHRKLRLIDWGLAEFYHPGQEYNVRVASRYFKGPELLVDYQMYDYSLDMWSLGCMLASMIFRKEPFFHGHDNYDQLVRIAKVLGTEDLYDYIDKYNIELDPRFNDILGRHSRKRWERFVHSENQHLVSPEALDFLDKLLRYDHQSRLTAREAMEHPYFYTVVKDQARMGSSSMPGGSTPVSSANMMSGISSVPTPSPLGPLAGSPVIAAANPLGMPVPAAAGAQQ

A word on the solubility: it is how much of the substance goes into solution per volume. Regarding `COc1ccc2c(c1Br)O/C(=C\c1ccc(O)c(C(F)(F)F)c1)C2=O` [JKT.819A], the IC50 is 0.54 µM on CK2A1 (setting [2]); 0.66 µM on CK2A2 (Table 11, aurones); 5.9 µM with IL-6 secretion (Table 11). In addition, the solubility in “Aqueous solubility” (Table 11) turned out to be 17 µM (≈ 7.06 µg/mL).
On to `COc1cc(/C=C2\Oc3c(ccc(OC)c3Br)C2=O)ccc1O` [JKT.820A], for which the IC50 on CK2A1 (setting [2]) is 0.007 µM; on CK2A2 (Table 11, aurones), 0.006 µM; with IL-6 secretion (Table 11) it was > 10 µM. Further, the solubility in the series “Aqueous solubility” (Table 11) was < 0.01 µM.
For `COc1ccc2c(c1Br)O/C(=C\c1ccc(C(=O)O)cc1)C2=O` [JKT.821A] the same measures were 1.54 µM, 0.206 µM, > 10 µM and 196 µM (≈ 73.4 µg/mL).
For the compound `O=C1/C(=C/c2cc(Cl)c(O)c(Cl)c2)Oc2c(Br)cc(Br)cc21` [JKT.822A], the IC50 on CK2A1 (setting [2]) was found to be 2.01 µM; on CK2A2 (Table 11, aurones) it was 0.804 µM; with IL-6 secretion (Table 11), 2 µM. The solubility in the series “Aqueous solubility” (Table 11) is < 0.01 µM.
For `COc1c(Br)cc2c(c1Br)O/C(=C\c1cc(Cl)c(O)c(Cl)c1)C2=O` [JKT.823A] the same measures were > 5 µM, 1.22 µM, 5.5 µM and 167 µM (≈ 82.5 µg/mL).
For `COc1ccc2c(c1Br)O/C(=C\c1cc(Cl)c(O)c(Cl)c1)C2=O` [JKT.824A] the same measures were 0.447 µM, 0.14 µM, 10.1 µM and > 200 µM.
Consider `O=c1[nH]c(-c2ccc(O)c(Br)c2)nc2c(Br)cccc12` [JKT.827A], for which the IC50 is 0.281 µM at CK2A1 (setting [3]); 0.86 µM on CK2A2 (Table 8, quinazolinones); > 10 µM in the series on IL-6 secretion (Table 8). In addition, the solubility in “Aqueous solubility” (setting [4]) was 22.4 µM (≈ 8.87 µg/mL).
On to `O=c1[nH]c(-c2ccc(O)c(Cl)c2)nc2c(Br)cccc12` [JKT.828A], for which the IC50 is 0.652 µM on CK2A1 (setting [3]); 1.41 µM on CK2A2 (Table 8, quinazolinones); > 10 µM in the series with IL-6 secretion (Table 8). In addition, in “Aqueous solubility” (setting [4]), the solubility worked out at 58.9 µM (≈ 20.7 µg/mL).
With `O=c1[nH]c(-c2cc(Cl)c(O)c(Cl)c2)nc2c(Br)cccc12` [JKT.829A], the IC50 on CK2A1 (setting [3]) is 0.736 µM; on CK2A2 (Table 8, quinazolinones) it was 0.659 µM; in the series with IL-6 secretion (Table 8), > 10 µM. In addition, in the series “Aqueous solubility” (setting [4]), the solubility came out at 193 µM (≈ 74.6 µg/mL).
For `O=c1[nH]c(-c2cc(F)c(O)c(F)c2)nc2c(Br)cccc12` [JKT.830A], the IC50 on CK2A1 (setting [3]) was 0.866 µM; on CK2A2 (Table 8, quinazolinones), 1.21 µM; in the series on IL-6 secretion (Table 8) it was > 10 µM. For the same compound, the solubility in the series “Aqueous solubility” (setting [4]) was found to be 171 µM (≈ 60.4 µg/mL).
For `O=c1[nH]c(-c2ccc(O)c(C(F)(F)F)c2)nc2c(Br)cccc12` [JKT.831A] the same measures were > 5 µM, > 5 µM, > 10 µM and 139 µM (≈ 53.5 µg/mL).
In the case of `COc1cc(-c2nc3c(Br)cccc3c(=O)[nH]2)ccc1O` [JKT.832A], the IC50 is 3.94 µM at CK2A1 (setting [3]); > 5 µM on CK2A2 (Table 8, quinazolinones); 10.5 µM in the series with IL-6 secretion (Table 8). For the same compound, the solubility in the series “Aqueous solubility” (setting [4]) stood at 61 µM (≈ 21.2 µg/mL).
For the compound `COc1nc(-c2ccc(O)c(Br)c2)nc2c(Br)cc(Br)cc12` [JKT.842A], the IC50 on CK2A1 (setting [3]) was 1.01 µM; at CK2A2 (Table 8, quinazolinones), 1.13 µM; in the series on IL-6 secretion (Table 8), > 10 µM. Also, the solubility in “Aqueous solubility” (setting [4]) is < 0.01 µM.
As to `O=c1cc(-c2ccc(O)c(Br)n2)oc2c(Br)cc(Br)cc12` [JKT.844A], the IC50 at CK2A1 (Table 4, read-out: CK2A1 RAD IC50) turned out to be 0.265 µM; at CK2A2 (Table 4) it was 0.201 µM; with IL-6 secretion (Table 4) it was 8 µM. Moreover, the solubility in the series “Aqueous solubility” (Table 4) amounted to 148 µM (≈ 70.2 µg/mL).
Take `O=C1C[C@@H](c2ccc(O)cc2)Oc2cc(O)cc(O)c21` [NAR, Naringenin]: the “Inhibitory activity, radiometric kinase assays using recombinant CK2α1” value at CK2A1 is listed as “do not show inhibitory activity”. At CK2A1 (setting [5]), the IC50 is > 10 µM. In the series on NF-κB, the “Activity in THP-1-NF-κB-Lucia monocytes” value is given as “No activity”; the “SAR summary: activity in NF-κB reporter assay and for CK2 kinase inhibition” value (from here on “SAR summary … for CK2 kinase inhibition”) was “inactive”. In addition, the “IL1-β-induced IL-6, IL-8, TNF-α, MCP-1 cytokine upregulation” value (from here on “IL1-β-induced IL-6, IL-8, TNF-α”) in series [1] is on record as “does not block”.
On to `O=c1cc(-c2ccccc2)oc2cc(O)cc(O)c12` [chrysin], for which the “Activity in THP-1-NF-κB-Lucia monocytes” value in the series with NF-κB is “No activity”.
`COc1ccc(C2CC(=O)c3c(OC)cc(OC)cc3O2)cc1` (stereo not shown) [dTMF, 4′,5,7-trimethoxyflavanone]: the “Inhibitory activity, radiometric kinase assays using recombinant CK2α1” value at CK2A1 was “do not show inhibitory activity”. Moreover, on CK2A1 (setting [5]), the IC50 is > 10 µM. Besides, in the series with NF-κB, the “Activity in THP-1-NF-κB-Lucia monocytes” value is “No activity”; the “SAR summary … for CK2 kinase inhibition” value was “inactive”. In addition, in series [1], the “IL1-β-induced IL-6, IL-8, TNF-α” value is “inactive”.
Take `O=c1c(O)c(-c2ccc(O)c(O)c2)oc2cc(O)ccc12` [fisetin]: in the series on NF-κB, the IC50 was < 4 µM; the “SAR summary … for CK2 kinase inhibition” value is reported as “active”. Further, in series [1], the “IL1-β-induced IL-6, IL-8, TNF-α” value is reported as “strong suppressive activity”.
`O=c1c(O)c(-c2ccc(O)cc2)oc2cc(O)cc(O)c12` [kaempferol]: in the series on NF-κB, the IC50 was < 4 µM; the “SAR summary … for CK2 kinase inhibition” value is recorded as “active”. In addition, the “IL1-β-induced IL-6, IL-8, TNF-α” value in series [1] is “strong suppressive activity”.
Regarding `O=c1cc(-c2ccc(O)c(O)c2)oc2cc(O)cc(O)c12` [luteolin], in the series with NF-κB, the IC50 was < 4 µM; the “SAR summary … for CK2 kinase inhibition” value is given as “active”. In series [1], the “IL1-β-induced IL-6, IL-8, TNF-α” value was “strong suppressive activity”.
For `O=c1c(O)c(-c2ccc(O)c(O)c2)oc2cc(O)cc(O)c12` [quercetin] the same measures were < 4 µM, “active” and “strong suppressive activity”.
